Source: patent US6413974B1, “6,9,-disubstituted 2-[trans-(4-aminocyclohexyl) amino] purines” (Aventis Pharmaceuticals Inc., priority 1998, dated 2002)
Several values for one entry are separate records, joined by “and”; a condition that tells them apart may be missing. Identical values can stand only once. Counter-ions that a name gives are not always drawn. Like-named read-outs stand apart in the source and are kept apart here.

Experiments:
[1] = test system: PC-3; experiment: In vitro tumor cell proliferation, PC-3; assay type: cell-based, human; conditions: read-out: In vitro Tumor Cell Proliferation (IC50, μM) Prostate PC-3
How it was run: (§1)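 Cells seeded overnight at 37° C, then exposed to drug 3 days, medium and drug renewed, plus 4 more days; TCA-fixed and sulforhodamine B stained. Alternatively CyQUANT read-out after 3 days' drug exposure, plates frozen at −80° C.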

[2] = test system: MDA-MB-231; experiment: In vitro tumor cell proliferation, MDA-MB-231; assay type: cell-based, human; conditions: read-out: In vitro Tumor Cell Proliferation (IC50, μM) Breast MDA-MB-231
How it was run: as §1

[3] = test system: HT-29; experiment: In vitro tumor cell proliferation, HT-29; assay type: cell-based, human; conditions: read-out: In vitro Tumor Cell Proliferation (IC50, μM) Colon HT-29 (converted)
How it was run: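 HT-29 human colon adenocarcinoma cells plated overnight at 37° C., then exposed to drug for 3 days, medium with fresh drug replaced for a further 4 days. Cells fixed with 10% TCA and stained with 0.4% sulforhodamine B; alternatively, CyQUANT read after 3 days of drug exposure.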

[4] = test system: DU 145; experiment: In vitro tumor cell proliferation, DU 145; assay type: cell-based, human; conditions: read-out: In vitro Tumor Cell Proliferation (IC50, μM) Prostate DUI45
How it was run: as §1

[5] = test system: MCF-7; experiment: In vitro tumor cell proliferation, MCF-7; assay type: cell-based, human; conditions: read-out: In vitro Tumor Cell Proliferation (IC50, μM) Breast MCF-7
Procedure: (§2) The proliferation of tumor cells was measured using a sulforhodamine B assay as described in Skehan, P., et al., J. Natl. Cancer Inst. […] Tumor cells were harvested with trypsin-EDTA, cells that excluded trypan blue were counted, added to 96-well plates and incubated overnight at 37° C. Drug was added to the wells following dilution in culture medium. Three days later, the medium was removed and replenished with medium containing fresh drug and incubated an additional 4 days. The cells were then fixed with 0.1 ml 10% trichloroacetic acid for 60 min at 4° C. The plates were rinsed five times with tap water, air-dried and stained for 30 min with 0.4% sulforhodamine B in 1% acetic acid and air-dried.
(§3) Alternatively, the CyQUANT cell proliferation assay was used to quantify tumor cell proliferation. Tumor cells were harvested with trypsin-EDTA, cells that excluded trypan blue were counted, added to 96-well plates and incubated overnight at 37° C. Drug was added to the wells following dilution in culture medium. Three days later the medium was removed and the plates frozen at −80° C. for at least 30 minutes.
MCF7 is a human breast adenocarcinoma, hormone-dependent (HTB 22);

[6] = test system: HCT-15; experiment: In vitro tumor cell proliferation, HCT-15; assay type: cell-based, human; conditions: read-out: In vitro Tumor Cell Proliferation (IC50, μM) Colon HCT-15
Procedure: as §2, §3

[7] = test system: A549; experiment: In vitro tumor cell proliferation, A549; assay type: cell-based, human; conditions: read-out: In vitro Tumor Cell Proliferation (IC50, μM) Lung A549
How it was run: as §1

[8] = target: T1, cdk2/cyclin E (Homo sapiens, UniProt P24941); experiment: Cyclin-Dependent Kinase 2 Assay (cdk-2 inhibition); assay type: biochemical; conditions: GST-Rb substrate, 30 min at 30° C.
T1 construct: made in house; host or cells: insect cells (baculovirus co-infection)
How it was run: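 GST-Rb bound to glutathione-Sepharose beads (0.5 μg/well) as substrate in 50 mM HEPES pH 7.5, 10 mM MgCl2, 1 mM EGTA. Recombinant cdk2/cyclin E at 0.1 μg per 100 μl, 30 min at 30 °C. Reaction stopped by filtration, TNEN washes, scintillation counting.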

[9] = test system: DMS-114; experiment: In vitro tumor cell proliferation, DMS-114; assay type: cell-based, human; conditions: read-out: In vitro Tumor Cell Proliferation (IC50, μM) Lung DMS-114
How it was run: as §1

[10] = target: T2, cdk4/cyclin D1 (Homo sapiens, UniProt P11802); experiment: Cyclin-dependent kinase 4 Assay; assay type: biochemical; conditions: cdk4/cyclin D1, GST-Rb substrate, 10 μM ATP, 30 min at 37° C.; read-out: CDK4 Inhibition IC50
T2 construct: made in house; host or cells: Sf9 insect cells (Bac-to-Bac baculovirus, pFastBac)
How it was run: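 Insect-cell lysate of coexpressed human cdk4/cyclin D1 (0.1 μg) phosphorylated bead-bound GST-Rb (0.5 μg) in 50 mM HEPES pH 7.5, 10 mM MgCl2, 1 mM EGTA for 30 min at 37 °C. Filters were washed with TNEN and scintillation-counted; IC50 values derived.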

[11] = Homo sapiens, PC-3, values without *
[12] = values without *, dihydrochloride
[13] = Homo sapiens, MDA-MB-231, values without *
[14] = Homo sapiens, DU-145, values without *
[15] = Homo sapiens, MCF7, values without *
[16] = Homo sapiens, HCT-15, values without *
[17] = Homo sapiens, HT-29, values without *
[18] = Homo sapiens, DMS-114, values without *
[19] = Homo sapiens, A549, values without *

T2 sequence (P11802 whole entry): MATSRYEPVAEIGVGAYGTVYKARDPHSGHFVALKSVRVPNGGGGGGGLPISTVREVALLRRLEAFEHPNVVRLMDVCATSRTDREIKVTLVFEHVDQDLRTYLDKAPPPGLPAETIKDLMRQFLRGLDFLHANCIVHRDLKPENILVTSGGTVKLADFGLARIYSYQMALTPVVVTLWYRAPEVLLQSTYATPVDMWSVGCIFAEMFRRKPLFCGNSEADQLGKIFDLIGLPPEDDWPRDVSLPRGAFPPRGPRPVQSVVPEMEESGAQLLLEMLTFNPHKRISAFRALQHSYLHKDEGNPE
T2 sequence (P24385 whole entry partner): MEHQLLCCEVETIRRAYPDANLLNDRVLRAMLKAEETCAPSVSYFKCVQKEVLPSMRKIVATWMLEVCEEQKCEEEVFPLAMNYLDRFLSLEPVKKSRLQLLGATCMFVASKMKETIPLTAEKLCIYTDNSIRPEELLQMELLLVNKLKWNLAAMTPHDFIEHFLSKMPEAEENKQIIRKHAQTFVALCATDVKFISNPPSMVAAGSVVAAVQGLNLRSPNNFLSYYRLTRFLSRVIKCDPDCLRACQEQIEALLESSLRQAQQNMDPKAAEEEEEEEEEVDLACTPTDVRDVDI

Structure (SMILES) | IC50 [1, 11] [µM] | IC50 [1, 12] | IC50 [2, 13] [µM] | IC50 [2, 12] | IC50 [3, 12] | IC50 [4, 14] [µM] | IC50 [4, 12] | IC50 [5, 15] [µM] | IC50 [5, 12] [µM] | IC50 [6, 16] [µM] | IC50 [6, 12] | IC50 [7, 12] | IC50 [8] | IC50 [3, 17] [µM] | IC50 [9, 18] [µM] | IC50 [9, 12] | IC50 [7, 19] [µM] | IC50 [10]
CC(C)n1cnc2c(NCC3CC3)nc(N[C@H]3CC[C@H](N)CC3)nc21 [Example 32, 2-[Trans-(4-aminocyclohexyl)amino]-6-[(cyclopropyl)methylamino]-9-(2-propyl)purine dihydrochloride] | 9.7 | 6.9 µM | 16 | 8.1 µM | 11 µM | 17 | 10 µM | 9.3 | 5.3 | > 20 | 24 µM | 10 µM | 0.21 µM and 0.096 µM |  |  |  |  | 
N[C@H]1CC[C@H](Nc2nc(NCC3CC3)c3ncn(C4CCCC4)c3n2)CC1 [Example 34, 2-[Trans-(4-aminocyclohexyl)amino]-6-[(cyclopropyl)methylamino]-9-cyclopentylpurine dihydrochloride] |  |  | 1.2 | 2.2 µM | 2.6 µM | 0.97 | 1.7 µM |  |  | 3.3 | 3.4 µM | 1.2 µM | 0.024 µM | 1.3 | 1.5 | 1.4 µM | 1.9 | 0.93 µM and 0.64 µM
N[C@H]1CC[C@H](Nc2nc(NCc3ccc(Cl)cc3F)c3ncn(C4CCCC4)c3n2)CC1 [Example 40, 2-[Trans-(4-aminocyclohexyl)amino]-6-[(4-chloro-2-fluorobenzyl)amino]-9-cyclopentylpurine dihydrochloride] |  |  | 3.1 | 3.5 µM | 3.2 µM | 2 | 3.5 µM | 1.7 | 3.3 | 4.2 | 3.6 µM | 3.6 µM | 0.19 µM | 1.6 | 2.3 | 2 µM | 2.01 | 3.1 µM and 1 µM
N[C@H]1CC[C@H](Nc2nc(NCc3ccccc3)c3ncn(C4CCCC4)c3n2)CC1 [Example 47, 2-[Trans-(4-aminocyclohexyl)amino]-6-[benzylamino]-9-cyclopentylpurine dihydrochloride] | 0.93 | 1.3 µM |  |  | 2.7 µM |  |  | 1 | 1.7 | 5.5 | 6.1 µM |  |  | 2.2 |  | 1.3 µM | 1.7 | 
N[C@H]1CC[C@H](Nc2nc(NCc3ccc(Cl)cc3Cl)c3ncn(C4CCCC4)c3n2)CC1 [Example 48, 2-[Trans-(4-aminocyclohexyl)amino]-6-[(2,4-dichlorobenzyl)amino]-9-cyclopentylpurine dihydrochloride] | 2 | 1.9 µM and 1.6 µM | 3 | 3.1 µM and 2 µM and 1.8 µM | 2.7 µM and 2.4 µM | 3.2 | 3.4 µM and 2.8 µM and 2.5 µM |  |  | 3.1 | 3.7 µM and 3.4 µM | 2.3 µM and 2.1 µM | 0.8 µM | 2.8 | 1.8 | 1.9 µM and 2 µM and 1.4 µM | 2.2 | 4.4 µM and 5.3 µM
N[C@H]1CC[C@H](Nc2nc(NCc3ccc(F)cc3)c3ncn(C4CCCC4)c3n2)CC1 [Example 50, 2-[Trans-(4-aminocyclohexyl)amino]-6-[(4-fluorobenzyl)amino]-9-cyclopentylpurine dihydrochloride] | 2 | 2.3 µM | 3.2 | 4.5 µM | 4.8 µM | 1.9 | 3.3 µM | 1.9 | 3.3 | 7.4 | 7.7 µM |  | 0.094 µM | 4 | 3.7 | 2.4 µM |  | 7.7 µM and 3.1 µM
